Source: patent US20230136702A1, “Inhibitors of Human Herpesviruses” (The Governors of the University of Alberta, priority 2020, published 2023)
Read-outs that look alike come from different tables or passages of the source.

What was measured:
[1] = biological target: T1, HCMV DNA polymerase (UL54) (Human cytomegalovirus, UniProt P08546); assay: HCMV DNA polymerase enzyme inhibition assay (ProFoldin, fluorescence); assay type: biochemical; conditions: 37° C., duplicate, max 40 μM
T1 construct: 6His (C); made in house; host or cells: Sf9 insect cells (baculovirus, pFastBac)
Method: The HCMV DNA polymerase assay was developed by ProFoldin. The assay detects the formation of DNA from the DNA polymerase reaction in the presence of a DNA template, dATP and dGTP. The formation of the DNA is detected by using a fluorescence method. The fluorescence intensity increases when DNA is generated by the enzyme reaction.
A time-course experiment was performed aside the enzyme inhibition assay to ensure the assay was sensitive to the enzyme inhibition. The wells for the time-course experiment contained 1 μL of DMSO and the same reaction mixture as that in the enzyme inhibition assay. The time-course data varied between plates. The reactions were stopped when the fluorescence reached a value of about 3700 for each plate.
Exemplary solid compounds (e.g., as described herein) were dissolved in DMSO to make […] stock solutions. PFA (phosphonoformic acid or phosphonomethanoic acid) was used as a positive control. The compound mother plates were prepared at 50× concentrated compound concentrations with a 2-fold serial dilution. All the exemplary compounds except PFA were diluted in DMSO. PFA was diluted in water. The maximum compound concentration was 2 mM that gave the final concentration of 40 μM in the assay. One microliter of the 50× stock solutions was transferred into the assay plates. Three copies of assay plates were prepared, two for HCMV DNA polymerase assay and one for compound background control.
The following is the protocol for enzyme inhibition performed at 37° C.:
1. Prepared a premix composed of 35347 μL of H2O, 5220 μL of 10× assay buffer and 149 μL of 350×HCMV DNA polymerase.
2. Added 39 μL of the premix into the wells with 1 μL of the compound. Incubated the mixture for at least 5 min.
3. Added 10 μL of 5×dNTP (0.1 mM), 5×DNA template solutions into each well and incubated the solution until the fluorescence value reached a value about 3700 for the DMSO-only control wells.
4. Added 50 μL of the 1× dye into the wells.
5. Read the fluorescence at emission wavelength of 535 nm and excitation wavelength of 485 nm.
For the compound background reading, added 99 μL of water in the wells with 1 μL of compounds and read the fluorescence. […] The 0% inhibition value F0 was from the wells with DMSO (no inhibitor).
The background values were subtracted from the fluorescence reading to get the net fluorescence values. The net fluorescence values were used for calculation of the percentage inhibition.
The assay was performed in duplicate for the test article at […], 1.25, 0.625, 0.313, 0.156 and 0.078 μM. The IC50 curves were obtained by fitting the percentage inhibition values with the compound concentrations using Prism GraphPad software.

[2] = Cytotoxicity in MRC5 cells without virus infection (CCK8); assay type: cell-based; conditions: human
Method: (§1) Exemplary compounds (e.g., as described herein) were prepared as 20 mM stock solutions with DMSO. Reference compound was ganciclovir (Sigma). Compounds were tested at 8 concentrations, 3-fold serial dilutions, in duplicate for EC50 and CC50 determinations. The highest testing concentrations of the exemplary compounds and reference compound were 40 μM and 100 μM, respectively. The final concentration of DMSO in the cell culture was 0.5%.
(§2) MRC5 cells (ATCC CCL-171) was obtained from the ATCC and maintained in the EMEM (Sigma) supplemented with 10% FBS (HyClone), 1% L-glutamine (Gibco), 1% NEAA (Gibco), and 1% PS (Hyclone). Reagent:
Cytotoxicity of the compounds was assessed under the same conditions, but without virus infection, in parallel. Cell viability was measured with CCK8 following the manufacturer's manual. CC50 values were then calculated based on cytotoxicity at the test concentrations normalized by the medium control (medium only).
(§3) Antiviral activity and cytotoxicity of the compounds were expressed as % Inhibition and % Viability, respectively, and calculated with the formulas below:
Viability (%)=(Raw dataCPD−AverageMC)/(AverageCC−AverageMC)*100
(§4) Raw dataCPD indicates the values of the compound-treated wells; AverageVC, AverageCC and AverageMC indicate the average values of the virus control (cells infected with virus, without compound treatment), cell control and medium control wells, respectively.
(§5) EC50 and CC50 values were calculated using the GraphPad Prism software.

hERG potassium channel = biological target: T2, hERG potassium channel (Homo sapiens, UniProt Q12809); assay: Inhibition of hERG potassium channel, automated patch clamp (SyncroPatch 384PE) in CHO cells; assay type: cell-based
T2 construct: host or cells: CHO cells stably expressing hERG
Method: This automated patch clamp method (SyncroPatch 384PE) CHO cells stably expressing hERG potassium channels from Sophion Biosciences were used for this test.
The cells were cultured in a humidified and air-controlled (5% C02) incubator at 37° C.
The CHO cells which were at least two days after plating and more than 75% confluent would be used for experiments. Before testing, cells were harvested using TrypLE and resuspended in the physiological solution at the room temperature.
For the electrophysiological recordings the following solutions were used (Table 5). The physiological solution and external solution were prepared at least one month. The intracellular solution was prepared in batches aliquoted, and stored at 4° C. until used.
Exemplary compounds (e.g., as described herein) were dissolved in 100% DMSO to obtain stock solutions for different test concentrations. Then the stock solutions were further diluted into external solution to achieve final concentrations for testing. Visual check for precipitation was conducted before testing. Final DMSO concentration in external solution was not more than 0.30% for the compounds.
From this holding potential of −80 mV, the voltage was first stepped to −50 mV for 80 ms for leak subtraction, and then stepped to +20 mV for 4800 ms to open hERG channels. After that, the voltage was stepped back down to −50 mV for 5000 ms, causing a “rebound” or tail current, which was measured and collected for data analysis. Finally, the voltage was stepped back to the holding potential (−80 mV, 1000 ms). This voltage command protocol was repeated every 20000 msec. This command protocol was performed continuously during the test (vehicle control and test compound).
hERG SyncroPatch assay was conducted at room temperature. The Setup, Prime Chip, Catch and Seal Cells, Amplifier Settings, Voltage and Application Protocols were established with Biomek Software (Nanion).
One addition of 40 μL of the vehicle was applied, followed by 300s for a baseline period. Then the doses of exemplary test compounds were added with 40 μL. The exposure of test compound at each concentration was no less than 300s. […] Five concentrations (0.494 μM, 1.48 μM, 4.44 μM, 13.33 μM and 40.00 μM) were tested for each compound. Minimum 2 replicates per concentration were obtained.
Within each well recording, percent of control values were calculated for each test compound concentration current response based on peak current in presence of reference control (current response/peak current)×100%. The Dose-Response curves were fit to the standard Hill equation as shown below:
Ipost cpd/Ipre cpd=Bottom+(Top−Bottom)/(1+10^((Log IC50−X)*HillSlope))
Where X is the logarithm of concentration, Ipost cpd/Ipre cpd is the normalized peak current amplitude, Top is 1 and Bottom is equal to 0.
Curve-fitting and IC50 calculations were performed by GraphPad Prism 5.0. If the inhibition obtained at the lowest concentration tested was over 50%, or at the highest concentration tested was less than 50%, we reported the IC50 as less than lowest concentration, or higher than highest concentration, respectively.

[3] = test system: HCMV US3-6-EGFP-HCMV-AD169 strain; assay: In vitro inhibitory (antiviral) activity against HCMV, GFP reporter in MRC5 cells; assay type: cell-based, Human cytomegalovirus (HCMV); conditions: Human betaherpesvirus 5, AD169, MRC5, 96 h, read-out: HCMV Antiviral EC50 range
Method: as §1
HCMV US3-6-EGFP-HCMV-AD169 strain was obtained from Institute Pasteur of Shanghai, CAS. The virus contains GFP as a reporter of the viral replication.
as §2
In 96-well plates, MRC5 cells were seeded at 20,000 cells per well and cultured at 37° C. and 5% C02 overnight. Next day, compounds (8 concentrations, 3-fold dilutions, in duplicate) and US3-6-EGFP-HCMV-AD169 (MOI=0.1) were added to the cells. The resulting cultures were incubated at 37° C. and 5% C02 for 4 days. Fluorescence intensity was determined by Acumen Cellista (TTP LabTech). The antiviral activity of each compound was calculated based on the inhibition of expression of GFP at each concentration normalized by the cell control (cells without virus infection or compound treatment).
as §3
Inhibition (%)=100−(Raw dataCPD−AverageCC)/(AverageVC−AverageCC)*100
as §4, §5

[4] = CHO cells stably expressing hERG, room temperature, 0.494-40.00 μM, read-out: CHO-hERG Activity Range

T2 sequence (Q12809 whole entry): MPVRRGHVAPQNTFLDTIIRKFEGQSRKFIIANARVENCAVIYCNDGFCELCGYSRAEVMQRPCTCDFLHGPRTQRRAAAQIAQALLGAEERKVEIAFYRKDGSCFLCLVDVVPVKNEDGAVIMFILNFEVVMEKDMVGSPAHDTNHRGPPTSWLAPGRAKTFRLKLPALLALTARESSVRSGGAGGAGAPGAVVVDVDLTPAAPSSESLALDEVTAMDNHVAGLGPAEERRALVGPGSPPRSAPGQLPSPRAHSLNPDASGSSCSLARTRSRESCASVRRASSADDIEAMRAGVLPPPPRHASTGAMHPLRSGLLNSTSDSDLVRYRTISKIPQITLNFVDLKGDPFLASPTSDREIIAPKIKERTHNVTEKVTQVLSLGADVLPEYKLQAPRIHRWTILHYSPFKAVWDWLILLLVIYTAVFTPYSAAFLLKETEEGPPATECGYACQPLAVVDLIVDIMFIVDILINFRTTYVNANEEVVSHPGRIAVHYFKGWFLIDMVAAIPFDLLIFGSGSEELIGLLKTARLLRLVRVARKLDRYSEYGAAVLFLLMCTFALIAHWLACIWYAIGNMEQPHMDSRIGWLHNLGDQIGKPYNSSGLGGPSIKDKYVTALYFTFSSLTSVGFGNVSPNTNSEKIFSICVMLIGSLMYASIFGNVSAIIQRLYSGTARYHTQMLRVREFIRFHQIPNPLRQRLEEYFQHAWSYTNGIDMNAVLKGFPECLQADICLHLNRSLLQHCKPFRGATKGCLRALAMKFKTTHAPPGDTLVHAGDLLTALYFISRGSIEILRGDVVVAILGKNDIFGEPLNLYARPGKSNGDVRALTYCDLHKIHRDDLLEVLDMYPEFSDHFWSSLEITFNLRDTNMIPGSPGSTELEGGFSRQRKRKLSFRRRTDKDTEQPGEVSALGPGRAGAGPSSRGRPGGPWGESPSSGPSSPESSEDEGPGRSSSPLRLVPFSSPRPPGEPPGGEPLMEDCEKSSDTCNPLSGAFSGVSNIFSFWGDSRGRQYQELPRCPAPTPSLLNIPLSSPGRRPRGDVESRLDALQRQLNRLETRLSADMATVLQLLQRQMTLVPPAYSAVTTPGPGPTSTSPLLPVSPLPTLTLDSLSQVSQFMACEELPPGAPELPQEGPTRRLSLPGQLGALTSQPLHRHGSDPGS
T1 sequence (P08546 whole entry): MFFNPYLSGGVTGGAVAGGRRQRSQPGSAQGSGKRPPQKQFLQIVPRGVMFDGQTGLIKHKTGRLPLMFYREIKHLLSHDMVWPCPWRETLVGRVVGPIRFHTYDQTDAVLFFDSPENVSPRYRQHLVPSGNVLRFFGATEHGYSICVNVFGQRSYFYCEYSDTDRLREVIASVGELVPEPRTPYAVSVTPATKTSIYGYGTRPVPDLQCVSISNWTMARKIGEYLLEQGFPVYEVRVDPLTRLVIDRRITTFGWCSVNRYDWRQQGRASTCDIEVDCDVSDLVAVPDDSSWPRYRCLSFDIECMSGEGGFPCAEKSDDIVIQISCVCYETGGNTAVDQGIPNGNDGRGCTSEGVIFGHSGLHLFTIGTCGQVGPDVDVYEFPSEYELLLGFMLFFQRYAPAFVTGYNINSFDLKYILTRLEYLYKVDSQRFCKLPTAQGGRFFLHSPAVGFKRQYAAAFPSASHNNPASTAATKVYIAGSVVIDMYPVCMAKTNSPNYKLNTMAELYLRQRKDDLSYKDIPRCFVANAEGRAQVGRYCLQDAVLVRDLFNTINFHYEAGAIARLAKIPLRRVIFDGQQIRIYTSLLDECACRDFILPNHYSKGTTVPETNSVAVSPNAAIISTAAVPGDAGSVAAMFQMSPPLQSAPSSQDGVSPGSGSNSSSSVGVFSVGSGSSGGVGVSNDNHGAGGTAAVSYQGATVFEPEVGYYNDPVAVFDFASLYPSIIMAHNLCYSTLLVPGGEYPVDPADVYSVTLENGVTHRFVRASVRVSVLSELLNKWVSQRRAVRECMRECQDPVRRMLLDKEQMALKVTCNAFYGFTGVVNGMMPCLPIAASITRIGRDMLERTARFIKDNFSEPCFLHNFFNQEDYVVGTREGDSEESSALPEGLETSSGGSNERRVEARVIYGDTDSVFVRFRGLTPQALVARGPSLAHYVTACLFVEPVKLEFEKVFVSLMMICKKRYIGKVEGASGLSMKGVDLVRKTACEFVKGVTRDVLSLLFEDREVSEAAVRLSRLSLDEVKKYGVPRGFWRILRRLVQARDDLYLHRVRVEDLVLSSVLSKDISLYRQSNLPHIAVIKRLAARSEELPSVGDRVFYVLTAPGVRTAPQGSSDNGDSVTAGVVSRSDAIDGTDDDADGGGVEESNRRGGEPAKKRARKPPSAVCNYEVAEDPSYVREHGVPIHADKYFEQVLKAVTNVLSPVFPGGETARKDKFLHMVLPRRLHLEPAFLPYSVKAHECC

SMILES | IC50 [1] [µM] | CC50 at 4 days [2] [µM] | IC50 (hERG potassium channel; [4]) [µM] | EC50 [3] [µM] | IC50 (hERG potassium channel) [µM]
CC1(F)CN(C(=O)Cn2c(=O)c(C(=O)NCc3ccc(Cl)cc3)cc3nc(N4CCN(CCNS(C)(=O)=O)C4=O)cnc32)C1 [Compound 16, N-[(4-chlorophenyl)methyl]-5-[2-(3-fluoro-3-methylazetidin-1-yl)-2-oxoethyl]-2-(3-{2-[(methanesulfonyl)amino]ethyl}-2-oxoimidazolidin-1-yl)-6-oxo-5,6-dihydropyrido[2,3-b]pyrazine-7-carboxamide] | < 1 | > 40 | > 10 | > 1 | –
CC(=O)NCCN1CCN(c2cnc3c(cc(C(=O)NCc4ccc(Cl)cc4)c(=O)n3CC(=O)N3CC(C)(F)C3)n2)C1=O [Compound 19] | < 1 | > 40 | > 10 | > 1 | –
CN(C)C(=O)CN1CCN(c2cnc3c(cc(C(=O)NCc4ccc(Cl)cc4)c(=O)n3CC(=O)N3CC(C)(F)C3)n2)C1=O [Compound 21] | < 1 | > 40 | > 10 | < 1 | –
CC(=O)N(C)CCN1CCN(c2cnc3c(cc(C(=O)NCc4ccc(Cl)cc4)c(=O)n3CC(=O)N3CC(C)(F)C3)n2)C1=O [Compound 22, 2-(3-{2-[acetyl(methyl)amino]ethyl}-2-oxoimidazolidin-1-yl)-N-[(4-chlorophenyl)methyl]-5-[2-(3-fluoro-3-methylazetidin-1-yl)-2-oxoethyl]-6-oxo-5,6-dihydropyrido[2,3-b]pyrazine-7-carboxamide] | < 1 | > 40 | > 10 | > 1 | –
CC1(F)CN(C(=O)Cn2c(=O)c(C(=O)NCc3ccc(Cl)cc3)cc3nc(N4CCN(CC(=O)NC#N)C4=O)cnc32)C1 [Compound 26, N-[(4-chlorophenyl)methyl]-2-{3-[2-(cyanoamino)-2-oxoethyl]-2-oxoimidazolidin-1-yl}-5-[2-(3-fluoro-3-methylazetidin-1-yl)-2-oxoethyl]-6-oxo-5,6-dihydropyrido[2,3-b]pyrazine-7-carboxamide] | < 1 | > 40 | > 10 | > 1 | –
CC1(F)CN(C(=O)Cn2c(=O)c(C(=O)NCc3ccc(Cl)cc3)cc3nc(N4CCN(Cc5nnn[nH]5)C4=O)cnc32)C1 [Compound 27, N-[(4-chlorophenyl)methyl]-5-[2-(3-fluoro-3-methylazetidin-1-yl)-2-oxoethyl]-6-oxo-2-{2-oxo-3-[(1H-tetrazol-5-yl)methyl]imidazolidin-1-yl}-5,6-dihydropyrido[2,3-b]pyrazine-7-carboxamide] | < 1 | > 40 | > 10 | > 1 | –
CC1(F)CN(C(=O)Cn2c(=O)c(C(=O)NCc3ccc(Cl)cc3)cc3nc(N4CCN(CC(=O)N5CCC5)C4=O)cnc32)C1 [Compound 28, 2-{3-[2-(azetidin-1-yl)-2-oxoethyl]-2-oxoimidazolidin-1-yl}-N-[(4-chlorophenyl)methyl]-5-[2-(3-fluoro-3-methylazetidin-1-yl)-2-oxoethyl]-6-oxo-5,6-dihydropyrido[2,3-b]pyrazine-7-carboxamide] | < 1 | > 40 | > 10 | < 1 | –
NCCN1CCN(c2cnc3c(cc(C(=O)NCc4ccc(Cl)cc4)c(=O)n3CC(=O)N3CC4(CC4)C3)n2)C1=O [Compound 36, 2-[3-(2-aminoethyl)-2-oxoimidazolidin-1-yl]-5-[2-(5-azaspiro[2.3]hexan-5-yl)-2-oxoethyl]-N-[(4-chlorophenyl)methyl]-6-oxo-5,6-dihydropyrido[2,3-b]pyrazine-7-carboxamide] | < 1 | 18 | – | < 1 | > 10
